Patent US20260139254A1, “INTERFERING RNA FOR INHIBITING TOP1 GENE EXPRESSION AND USE THEREOF” (JENKEM TECHNOLOGY CO., LTD. (BEIJING), priority 2022, published 2026)

Test system: TOP1 mRNA
Assay: Inhibitory effect of siTOP1 on TOP1 mRNA in A375 cells (Lipofectamine RNAiMAX transfection, Q-PCR)
Format: cell-based, human
Details: A375, siRNA 50 nM, 48 h after transfection
Method: • 1) On the day before transfection, A375 melanoma cells were seeded into a 24-well plate at 6×10^4 to 8×10^4 cells/well, the culture medium being 500 μL of DMEM containing 10% FBS and 1% Penicillin-Streptomycin, and the plate was placed in an incubator with 5% CO2 at 37° C. for 24 h to allow the cells to adhere to the wall. Three replicate wells were made for each group. • 2) On the day of transfection, the culture medium was changed to 450 μL of DMEM culture medium without antibiotics (containing 10% FBS). • 3) The siRNAs were diluted with 25 μL of Opti-MEM culture medium; the siNC (the siNC (reference: O Sordet et al., 2008) having the target sequence of 5′-TTCTCCGAACGTGTCACGT-3′ (SEQ ID NO: 46)) at the same concentration was the negative control group; Lipofectamine™ RNAiMAX (Lipo) transfection reagent was diluted with another 25 μL of Opti-MEM culture medium and left to stand at room temperature for 5 min; and the two dilutions were uniformly mixed and left to stand at room temperature for 5 min. • 4) 50 μL of the mixed solution described above was added to each well to obtain a final transfection volume of 500 μL. and the working concentration of the siRNA was 50 nM. • 5) After the transfection, the cells were cultured for 48 h and then collected.
• 1) RNA was extracted using an Eastep™ Super total RNA extraction kit; 300 μL of RNA lysis solution and 300 μL of RNA diluent were added; and the mixture was uniformly mixed and then transferred to a 1.5 mL centrifuge tube. • 2) The mixture was centrifuged at 14000 g for 5 min, and the supernatant was carefully pipetted into a new 1.5 mL centrifuge tube. • 3) A 0.5-fold volume of absolute ethanol was added, and the mixture was uniformly mixed by allowing the tube to be repeatedly upside down 15-20 times. Subsequently, the mixture was transferred to a centrifuge column and centrifuged at 12000 g for 1 min. The filtrate was discarded. • 4) 600 μL of RNA wash buffer was added, and the mixture was centrifuged at 12000 g for 1 min. The filtrate was discarded. • 5) 50 μL of DNase I incubation buffer was added, followed by DNA digestion at room temperature for 15 min. • 6) 600 μL of RNA wash buffer was added, the mixture was centrifuged at 12000 g for 1 min, and the filtrate was discarded. This procedure was repeated once. • 7) The mixture was centrifuged at 14000 g for 2 min to remove the residual RNA wash buffer, and then the centrifuge column was placed in a collection tube. • 8) An appropriate amount of RNase-free H2O was added, and the mixture was left to stand at room temperature for 12 min and centrifuged at 14000 g for 1 min. The collected RNA was preserved at −70° C. for later use.
• 1) The mass and concentration of the RNA were detected using NanoDrop™, and an RNA template was prepared as follows: RNase-free H2O was added to 1 μg of RNA to a volume of 10 μL; the mixture was placed at 70° C. for 5 min and then placed in an ice bath for 5 min for later use. • 2) A reaction system was established according to Table 2:
• 3) The reaction system described above was uniformly mixed and centrifuged to collect the liquid at the bottom of a tube, and the mixture was subjected to the procedures of 25° C. for 5 min, 42° C. for 60 min, and 72° C. for 15 min, thereby giving the cDNA product. • 4) A Q-PCR system was prepared according to Table 3, and the level of TOP1 gene was detected:
GAPDH was used as an endogenous reference, and the sequences of the primers used for detection are as follows: […]

Substance: siTOP1-1604: siRNA targeting TOP1; target SEQ ID NO: 9, sense strand SEQ ID NO: 24, antisense strand SEQ ID NO: 39 (sense GUGUGGACAAGAUCCGGAAUU; antisense UUCCGGAUCUUGUCCACACUU; described as unmodified parent siRNA, further chemistry not given here)
- Inhibition of TOP1 expression: 94.0%
- Relative expression level of gene, mean value (Blank = 100.00, GAPDH reference): 5.97
